Tests used:
Assay in all cases: Foliage treatment (Example 8)
Assay type in all cases: in vivo
Set-up in all cases: key: 0 indicates no effect; 5 indicates complete kill
[1] = tested on: Brassica oleracea; settings: Plant No. 28 Brassica oleracea
Method: (§1) Aqueous solutions of Phosalacine (Na salt) at different concentrations were applied at a rate of 1500 liters per hectare to naturally occurring plants or plants which were cultured on plates as shown in the following Table at certain stages of growth. […]

[2] = tested on: Cucumis sativus; settings: Plant No. 33 Cucumis sativus
Method: as §1

[3] = tested on: Arctium lappa; settings: Plant No. 30 Arctium lappa, 14 days
Method: as §1

[4] = tested on: Miscanthus sinensis; settings: Plant No. 5 Miscanthus sinensis
Method: as §1

[5] = tested on: Imperata cyrindrica; settings: Plant No. 15 Imperata cyrindrica
Method: (§2) Aqueous solutions of Phosalacine (Na salt) at different concentrations were applied at a rate of 1500 liters per hectare to naturally occurring plants or plants which were cultured on plates as shown in the following Table at certain stages of growth. […] One month after the foliage treatment, the inhibition of regrowth of the plants was visually investigated.

[6] = tested on: Pleioblastus chino; settings: Plant No. 11 Pleioblastus chino
Method: as §2

[7] = tested on: Triticum aestivum; settings: Plant No. 26 Triticum aestivum
Method: as §2

[8] = tested on: Oryzae sativa; settings: Plant No. 25 Oryzae sativa
Method: as §2

[9] = tested on: Raphanus sativus; settings: Plant No. 32 Raphanus sativus
Method: as §2

[10] = tested on: Rumex obtusifolius; settings: Plant No. 14 Rumex obtusifolius
Method: as §2

[11] = tested on: Solanum melongena; settings: Plant No. 31 Solanum melongena
Method: as §2

[12] = tested on: Helianthus tuberosus; settings: Plant No. 12 Helianthus tuberosus
Method: as §2

[13] = tested on: Daucus carota; settings: Plant No. 29 Daucus carota
Method: as §2

[14] = tested on: Digitaria adscendens; settings: Plant No. 10 Digitaria adscendens
Method: as §2

[15] = tested on: Pueraria lobata; settings: Plant No. 16 Pueraria lobata
Method: as §2

[16] = tested on: Cayratia japonica; settings: Plant No. 13 Cayratia japonica
Method: as §2

In the case of `C[C@H](NC(=O)[C@H](C)NC(=O)[C@@H](N)CCP(C)(=O)[O-])C(=O)O.[Na+]` [SF, reference compound], the “damage to the plants, scale 0 to 5” value ([1]; 0.1%, 7 days) is reported as 3, the “damage to the plants, scale 0 to 5” value ([1]; 0.1%, 14 days) is reported as 4 and the “damage to the plants, scale 0 to 5” value ([1]; 0.2%, 7 days) is reported as 4. The “damage to the plants, scale 0 to 5” value ([1]; 0.2%, 14 days) was 5, the “damage to the plants, scale 0 to 5” value ([2]; 0.1%, 7 days) was 3 and the “damage to the plants, scale 0 to 5” value ([2]; 0.1%, 14 days) was 4. For the same molecule, the “damage to the plants, scale 0 to 5” value ([2]; 0.2%, 7 days) was 4, the “damage to the plants, scale 0 to 5” value ([2]; 0.2%, 14 days) was 5 and the “damage to the plants, scale 0 to 5” value ([3]; 0.1%) was 4. The “damage to the plants, scale 0 to 5” value ([3]; 0.2%) was 5, the “damage to the plants, scale 0 to 5” value ([4]; 0.1%, 7 days) was 3 and the “damage to the plants, scale 0 to 5” value ([4]; 0.1%, 14 days) was 4. The “damage to the plants, scale 0 to 5” value ([4]; 0.2%, 7 days) was 4, the “damage to the plants, scale 0 to 5” value ([4]; 0.2%, 14 days) was 5 and the “damage to the plants, scale 0 to 5” value ([5]; 0.1%, 7 days) was 3. For the same molecule, the “damage to the plants, scale 0 to 5” value ([5]; 0.1%, 14 days) was 4, the “damage to the plants, scale 0 to 5” value ([5]; 0.2%, 7 days) was 4 and the “damage to the plants, scale 0 to 5” value ([5]; 0.2%, 14 days) was 5. The “damage to the plants, scale 0 to 5” value ([6]; 0.1%, 7 days) was 3, the “damage to the plants, scale 0 to 5” value ([6]; 0.1%, 14 days) was 4 and the “damage to the plants, scale 0 to 5” value ([6]; 0.2%, 7 days) was 4. The “damage to the plants, scale 0 to 5” value ([6]; 0.2%, 14 days) was 5, the “damage to the plants, scale 0 to 5” value ([7]; 0.1%, 7 days) was 3 and the “damage to the plants, scale 0 to 5” value ([7]; 0.1%, 14 days) was 4. For the same molecule, the “damage to the plants, scale 0 to 5” value ([7]; 0.2%, 7 days) was 4, the “damage to the plants, scale 0 to 5” value ([7]; 0.2%, 14 days) was 5 and the “damage to the plants, scale 0 to 5” value ([8]; 0.1%, 7 days) was 3. The “damage to the plants, scale 0 to 5” value ([8]; 0.1%, 14 days) was 4, the “damage to the plants, scale 0 to 5” value ([8]; 0.2%, 7 days) was 4 and the “damage to the plants, scale 0 to 5” value ([8]; 0.2%, 14 days) was 5. For the same molecule, the “damage to the plants, scale 0 to 5” value ([9]; 0.1%, 7 days) was 3, the “damage to the plants, scale 0 to 5” value ([9]; 0.1%, 14 days) was 4 and the “damage to the plants, scale 0 to 5” value ([9]; 0.2%, 7 days) was 4. The “damage to the plants, scale 0 to 5” value ([9]; 0.2%, 14 days) was 5, the “damage to the plants, scale 0 to 5” value ([10]; 0.1%, 7 days) was 3 and the “damage to the plants, scale 0 to 5” value ([10]; 0.1%, 14 days) was 4. For the same molecule, the “damage to the plants, scale 0 to 5” value ([10]; 0.2%, 7 days) was 4, the “damage to the plants, scale 0 to 5” value ([10]; 0.2%, 14 days) was 5 and the “damage to the plants, scale 0 to 5” value ([11]; 0.1%, 7 days) was 3. The “damage to the plants, scale 0 to 5” value ([11]; 0.1%, 14 days) was 4, the “damage to the plants, scale 0 to 5” value ([11]; 0.2%, 7 days) was 5 and the “damage to the plants, scale 0 to 5” value ([11]; 0.2%, 14 days) was 5. The “damage to the plants, scale 0 to 5” value ([12]; 0.1%, 7 days) was 3, the “damage to the plants, scale 0 to 5” value ([12]; 0.1%, 14 days) was 4 and the “damage to the plants, scale 0 to 5” value ([12]; 0.2%, 7 days) was 4. For the same molecule, the “damage to the plants, scale 0 to 5” value ([12]; 0.2%, 14 days) was 5, the “damage to the plants, scale 0 to 5” value ([13]; 0.1%, 7 days) was 2 and the “damage to the plants, scale 0 to 5” value ([13]; 0.1%, 14 days) was 4. For the same molecule, the “damage to the plants, scale 0 to 5” value ([13]; 0.2%, 7 days) was 3, the “damage to the plants, scale 0 to 5” value ([13]; 0.2%, 14 days) was 5 and the “damage to the plants, scale 0 to 5” value ([14]; 0.1%, 7 days) was 3. For the same molecule, the “damage to the plants, scale 0 to 5” value ([14]; 0.1%, 14 days) was 4, the “damage to the plants, scale 0 to 5” value ([14]; 0.2%, 7 days) was 5 and the “damage to the plants, scale 0 to 5” value ([14]; 0.2%, 14 days) was 5. For the same molecule, the “damage to the plants, scale 0 to 5” value ([15]; 0.1%, 7 days) was 3, the “damage to the plants, scale 0 to 5” value ([15]; 0.1%, 14 days) was 4 and the “damage to the plants, scale 0 to 5” value ([15]; 0.2%, 7 days) was 4. The “damage to the plants, scale 0 to 5” value ([15]; 0.2%, 14 days) was 5, the “damage to the plants, scale 0 to 5” value ([16]; 0.1%, 7 days) was 3 and the “damage to the plants, scale 0 to 5” value ([16]; 0.1%, 14 days) was 4. For the same molecule, the “damage to the plants, scale 0 to 5” value ([16]; 0.2%, 7 days) was 4 and the “damage to the plants, scale 0 to 5” value ([16]; 0.2%, 14 days) was 5.
